Reference: patent publication US20180325914A1, “INCREASING STORAGE OF VITAMIN A, VITAMIN D AND/OR LIPIDS” (Salk Institute for Biological Studies, priority 2014, published 2018)

System: primary HSCs

## Cc1sc2c(c1C)C(c1ccc(Cl)cc1)=N[C@@H](CC(=O)OC(C)(C)C)c1nnc(C)n1-2 [JQ1, (S)-tert-butyl 2-(4-(4-chlorophenyl)-2,3,9-trimethyl-6H-thieno[3,2-f][1,2,4]triazolo[4,3-a][1,4]diazepin-6-yl)acetate]
Day_6_JQ1
  Stk39 value_2: 17.0092
  Sulf1 value_2: 53.8118
  Tbxa2r value_2: 1.603
  Tcea3 value_2: 1.947
  Tead3 value_2: 19.5802
  Thbs3 value_2: 1.4249
  Timp1 value_2: 296.521
  Tlcd2 value_2: 7.717
  Tm7sf3 value_2: 17.8846
  Tmem14a value_2: 2.145
  Tmem38a value_2: 9.934
  Tmem45a value_2: 21.4757
  Tmem119 value_2: 38.7358
  Tpm1 value_2: 1441.58
  Trf value_2: 73.4499
  Trim46 value_2: 1.758
  Trnp1 value_2: 13.5695
  Tsku value_2: 19.2147
  Tspan2 value_2: 2.762
  Tspan6 value_2: 21.2613
  Ttc13 value_2: 20.1057
  Tubb2b value_2: 18.8633
  Tubb4 value_2: 12.0841
  Txndc5 value_2: 194.663
  Ube2c value_2: 30.6226
  Unc119 value_2: 15.3231
  Vash2 value_2: 1.343
  Vegfa value_2: 27.576
  Wee1 value_2: 8.031
  Wfs1 value_2: 22.9762
  Whrn value_2: 4.993
  Wnt4 value_2: 18.5297
  Wnt5a value_2: 7.524
  Wnt9a value_2: 7.671
  Ydjc value_2: 1.905
  Zbtb8b value_2: 2.023
  Zyx value_2: 185.005
Gene 1190002N15Rik, mRNA-Seq, sample Day_6_JQ1
  1190002N15Rik value_2: 132.567
Gene Aard, mRNA-Seq, sample Day_6_JQ1
  Aard value_2: 83.973
Gene Abat, mRNA-Seq, sample Day_6_JQ1
  Abat value_2: 35.0761
Gene Adamts5, mRNA-Seq, sample Day_6_JQ1
  Adamts5 value_2: 91.9646
Gene Aldh1a1, mRNA-Seq, sample Day_6_JQ1
  Aldh1a1 value_2: 311.654
Gene Arxes2, mRNA-Seq, sample Day_6_JQ1
  Arxes2 value_2: 27.1896
Gene Asf1b, mRNA-Seq, sample Day_6_JQ1
  Asf1b value_2: 22.9334
Gene Atoh8, mRNA-Seq, sample Day_6_JQ1
  Atoh8 value_2: 73.1716
Gene Barx1, mRNA-Seq, sample Day_6_JQ1
  Barx1 value_2: 11.4288
Gene Bcmo1, mRNA-Seq, sample Day_6_JQ1
  Bcmo1 value_2: 159.902
Gene Birc5, mRNA-Seq, sample Day_6_JQ1
  Birc5 value_2: 50.4974
Gene Bub1, mRNA-Seq, sample Day_6_JQ1
  Bub1 value_2: 8.993
Gene Casc4, mRNA-Seq, sample Day_6_JQ1
  Casc4 value_2: 36.8307
Gene Cd248, mRNA-Seq, sample Day_6_JQ1
  Cd248 value_2: 118.878
Gene Cdca5, mRNA-Seq, sample Day_6_JQ1
  Cdca5 value_2: 10.0872
Gene Cdon, mRNA-Seq, sample Day_6_JQ1
  Cdon value_2: 16.8708
Gene Cep55, mRNA-Seq, sample Day_6_JQ1
  Cep55 value_2: 13.1668
Gene Ckap2, mRNA-Seq, sample Day_6_JQ1
  Ckap2 value_2: 33.1117
Gene Clca1, mRNA-Seq, sample Day_6_JQ1
  Clca1 value_2: 52.2679
Gene Col14a1, mRNA-Seq, sample Day_6_JQ1
  Col14a1 value_2: 181.433
Gene Ddr1, mRNA-Seq, sample Day_6_JQ1
  Ddr1 value_2: 106.289
Gene Dzip1, mRNA-Seq, sample Day_6_JQ1
  Dzip1 value_2: 31.5814
Gene Efemp1, mRNA-Seq, sample Day_6_JQ1
  Efemp1 value_2: 205.387
Gene Egr1, mRNA-Seq, sample Day_6_JQ1
  Egr1 value_2: 141.166
Gene Emilin2, mRNA-Seq, sample Day_6_JQ1
  Emilin2 value_2: 88.1199
Gene Epha7, mRNA-Seq, sample Day_6_JQ1
  Epha7 value_2: 11.3808
Gene Fam117a, mRNA-Seq, sample Day_6_JQ1
  Fam117a value_2: 15.5563
Gene Fam123b, mRNA-Seq, sample Day_6_JQ1
  Fam123b value_2: 9.43
Gene Fam83d, mRNA-Seq, sample Day_6_JQ1
  Fam83d value_2: 24.1741
Gene Fbln1, mRNA-Seq, sample Day_6_JQ1
  Fbln1 value_2: 13.4635
Gene Fbln5, mRNA-Seq, sample Day_6_JQ1
  Fbln5 value_2: 79.5082
Gene Fgfr2, mRNA-Seq, sample Day_6_JQ1
  Fgfr2 value_2: 86.0077
Gene Fhl1, mRNA-Seq, sample Day_6_JQ1
  Fhl1 value_2: 503.063
Gene Figf, mRNA-Seq, sample Day_6_JQ1
  Figf value_2: 27.0541
Gene Gamt, mRNA-Seq, sample Day_6_JQ1
  Gamt value_2: 12.8445
Gene Gdf11, mRNA-Seq, sample Day_6_JQ1
  Gdf11 value_2: 22.9531
Gene Ghr, mRNA-Seq, sample Day_6_JQ1
  Ghr value_2: 60.5749
Gene H1fx, mRNA-Seq, sample Day_6_JQ1
  H1fx value_2: 50.515
Gene H2afx, mRNA-Seq, sample Day_6_JQ1
  H2afx value_2: 155.278
Gene H19, mRNA-Seq, sample Day_6_JQ1
  H19 value_2: 82.2113
Gene Hist1h1c, mRNA-Seq, sample Day_6_JQ1
  Hist1h1c value_2: 246.293
Gene Hmcn1, mRNA-Seq, sample Day_6_JQ1
  Hmcn1 value_2: 13.3966
Gene Hmgn3, mRNA-Seq, sample Day_6_JQ1
  Hmgn3 value_2: 59.5606
Gene Hspa2, mRNA-Seq, sample Day_6_JQ1
  Hspa2 value_2: 19.5751
Gene Igf2r, mRNA-Seq, sample Day_6_JQ1
  Igf2r value_2: 67.7147
Gene Igfbp6, mRNA-Seq, sample Day_6_JQ1
  Igfbp6 value_2: 52.4488
Gene Isyna1, mRNA-Seq, sample Day_6_JQ1
  Isyna1 value_2: 113.425
Gene Itga1, mRNA-Seq, sample Day_6_JQ1
  Itga1 value_2: 101.182
Gene Itm2a, mRNA-Seq, sample Day_6_JQ1
  Itm2a value_2: 59.8717
Gene Kif23, mRNA-Seq, sample Day_6_JQ1
  Kif23 value_2: 11.9374
Gene Kifc1, mRNA-Seq, sample Day_6_JQ1
  Kifc1 value_2: 15.9311
Gene Klhl13, mRNA-Seq, sample Day_6_JQ1
  Klhl13 value_2: 100
Gene Lama1, mRNA-Seq, sample Day_6_JQ1
  Lama1 value_2: 16.8277
Gene Lum, mRNA-Seq, sample Day_6_JQ1
  Lum value_2: 485.984
Gene Mad2l1, mRNA-Seq, sample Day_6_JQ1
  Mad2l1 value_2: 31.9743
Gene Mapk8ip1, mRNA-Seq, sample Day_6_JQ1
  Mapk8ip1 value_2: 16.3375
Gene Meis1, mRNA-Seq, sample Day_6_JQ1
  Meis1 value_2: 24.7836
Gene Mmp17, mRNA-Seq, sample Day_6_JQ1
  Mmp17 value_2: 25.3895
Gene Mxd4, mRNA-Seq, sample Day_6_JQ1
  Mxd4 value_2: 76.146
Gene Ncapd2, mRNA-Seq, sample Day_6_JQ1
  Ncapd2 value_2: 18.5667
Gene Ncapg2, mRNA-Seq, sample Day_6_JQ1
  Ncapg2 value_2: 11.6063
Gene Ncaph, mRNA-Seq, sample Day_6_JQ1
  Ncaph value_2: 16.1078
Gene Nek2, mRNA-Seq, sample Day_6_JQ1
  Nek2 value_2: 11.522
Gene Nusap1, mRNA-Seq, sample Day_6_JQ1
  Nusap1 value_2: 10.0613
Gene Pcsk6, mRNA-Seq, sample Day_6_JQ1
  Pcsk6 value_2: 16.0741
Gene Pcyox1, mRNA-Seq, sample Day_6_JQ1
  Pcyox1 value_2: 135.704
Gene Peg3, mRNA-Seq, sample Day_6_JQ1
  Peg3 value_2: 37.0421
Gene Peg10, mRNA-Seq, sample Day_6_JQ1
  Peg10 value_2: 121.813
Gene Pkia, mRNA-Seq, sample Day_6_JQ1
  Pkia value_2: 28.0014
